Values quoted from earlier work as cited in patent publication US7601707B1, “Method for instantly relieving tissue inflammation” (priority 2003, dated 2009).

Legend:
[1] = dose at which some people begin to feel toxic systemic effects; not considered lethal
[2] = in vivo

Row | SMILES | Max dose Mg/Kg [1] [Mg/Kg] | Half-life [2] [h] | water solubility
1 | CCCNC(C)C(=O)Nc1c(C)csc1C(=O)OC (stereo not drawn) [Articaine] | 7.0 | 0.333 | 
2 | CCCCN1CCCCC1C(=O)Nc1c(C)cccc1C (stereo not drawn) [Bupivicaine] | 1.3 | 3.5 | 
3 | C[C@@H]1C[C@H]2[C@@H]3CCC4=CC(=O)C=C[C@]4(C)[C@@]3(F)[C@@H](O)C[C@]2(C)[C@@]1(O)C(=O)CO [Dexamethasone] |  |  | very water-soluble
4 | CCCN(CC)C(CC)C(=O)Nc1c(C)cccc1C (stereo not drawn) [Etidocaine] | 8.0 | 2.58 | 
5 | CCN(CC)CC(=O)Nc1c(C)cccc1C [Lidocaine] | 7.0 |  | 
6 | Cc1cccc(C)c1NC(=O)C1CCCCN1C (stereo not drawn) [Mepivicaine 2%, Mepivicaine] | 6.6 | 1.92 | 
7 | CCCNC(C)C(=O)Nc1ccccc1C (stereo not drawn) [Prilocaine] | 8.0 | 1.5 | 
